In US20250171413A1, “ANTIVIRAL INDOLINYL COMPOUNDS AND USES THEREOF” (Gilead Sciences, Inc., priority 2023, published 2025):
Like-named read-outs stand apart in the source and are kept apart here.

Tested on: HSV-2 virus (MS strain)
Experiment: HSV-2 Cellomics Assay (immunofluorescence of HSV protein gD)
Format: cell-based
Procedure: Compounds were tested for their ability to inhibit HSV-2 replication by monitoring the expression of the HSV protein gD using a high-throughput immunofluorescence-based assay. 10-dose, 3-fold serial dilutions of compounds were prepared at starting concentrations of 0.2 or 2 mM in 100% DMSO. 250 nl of compounds were spotted in quadruplicates onto black collagen-coated 384-well microplates with clear bottom (Greiner cat #781956) using a Labcyte ECHO acoustic dispenser. The final starting concentration in the assay was either […]. DMSO (no compound) and pritelivir were included on each microplate as negative and positive controls, respectively.
ARPE-19 cells (ATCC cat #CRL-2302) were maintained DMEM/F-12 Glutamax medium (Thermo Fisher Scientific cat #10565018) supplemented with 10% FBS (Corning cat #35-011-CV) and 1% Penicillin-Streptomycin (cat #30-002-CI). Prior to confluence, cells were transferred to a centrifuge tube and spun for 5 minutes at 1000 rpm. Cells were resuspended in assay medium (DMEM/F-12 Glutamax, 2% FBS, 1% Penicillin-Streptomycin) and counted. Cell density was adjusted to 150,000 cells/ml and infected with HSV-2 virus (MS strain, ATCC cat #VR-540) at a MOI of 0.06 in a 50 ml conical tube for 1 hour under constant rocking. Cells were then spun for 5 minutes at 1000 rpm and the media replaced with assay medium containing either 2% FBS or 10% human serum (EMD Millipore cat #S1-100ML). 50 μl of the infection suspension were added into microplate wells that were pre-spotted with compounds (7,500 cells per well). Plates were incubated for 16 hours at 37° C.
Cell culture medium was aspirated using a Biomek Fx and 50 μl of a paraformaldehyde solution (Electron Microscopy Sciences cat #15712-5) diluted to 4% in DPBS (Corning cat #21-031-CM) were added per well. After a 30-minute incubation at room temperature, plates were washed 4 times with 100 μl/well of PBS using a Biotek plate washer. A 1:500 solution of primary antibody (anti-HSV gD, Virusys cat #P1103) was prepared in permeabilization buffer (Invitrogen cat #00-8333-56) and 50 μl were added into wells. After a 1-hour incubation at room temperature, 50 μl of a 1:1000 solution of secondary antibody (Alexa Fluor 488 goat anti-mouse, Thermo Fisher Scientific cat #A11001) and DAPI (Thermo Fisher Scientific cat #62248) in permeabilization buffer were added into wells and plates were incubated in the dark at room temperature for 1 hour. Plates were washed 4 times again and 50 μl of DPBS were added to all wells prior to sealing the plates with a black adhesive seal. Fluorescence was measured on a Cellomics plate reader.
Data analysis was carried out using the Thermo Scientific HCS Studio software. Briefly, cells were identified using the DAPI nuclear stain and thresholds were set to filter cells out based on shape and size. A second threshold based on green fluorescence intensity (detection of HSV-2 gD) was set to identify HSV-2 infected cells. Data was reported as the average fluorescence intensity of HSV-2 infected cells. EC50 values were defined as the compound concentration that caused a 50% decrease in the average fluorescence intensity and was calculated using a sigmoidal dose-response model to generate curve fits.

EC50 (Human alphaherpesvirus 2, HSV-2 (MS strain, MOI 0.06) infected ARPE-19 cells, assay medium containing 2% FBS, 16 hours, read-out: EC50-HSV2-FBS) [µM] | EC50 (Human alphaherpesvirus 2, HSV-2 (MS strain, MOI 0.06) infected ARPE-19 cells, assay medium containing 10% human serum, 16 hours, read-out: EC50-HSV2-10% Human Serum) [µM] | SMILES | EC50 (Human alphaherpesvirus 2, ARPE-19, read-out: EC50 in HSV-2 Cellomics assay) [µM]
0.231 | 2.38 | CCCC(=O)NS(=O)(=O)c1cc2c(cc1F)C[C@@H](C)N2C(=O)[C@@H]1Cc2ccc(-c3ccccn3)cc2C1 [Example 32, N—(((R)-5-fluoro-2-methyl-1-((R)-5-(pyridin-2-yl)-2,3-dihydro-1H-indene-2-carbonyl)indolin-6-yl)sulfonyl)butyramide] | –
– | – | Cc1nc(N(C)C(=O)Cc2ccc(-c3ccccn3)cc2)sc1S(N)(=O)=O [pritelivir, reference compound] | 0.15
